The text below walks through data of patent US20150175584A1, “Quinazolin-THF-amines as PDE1 inhibitors” (H. LUNDBECK A/S, priority 2013, published 2015).

The IC50 is the midpoint of a concentration-inhibition curve. Read a low IC50 as greater potency.

Holding throughout (type): biochemical
Holding throughout (conditions): 15 nM tritium labelled cAMP, 1 h at room temperature, SPA beads

The target in assay [1] is PDE1C (Homo sapiens, UniProt Q14123). Briefly: PDE1 Inhibition Assay, PDE1C (SPA). On the procedure:
(§1) PDE1A, PDE1B and PDE1C assays were performed as follows: the assays was performed in 60 μL samples containing a fixed amount of the PDE1 enzym1 (sufficient to convert 20-25% of the cyclic nucleotide substrate), a buffer (50 mM HEPES pH 7.6; 10 mM MgCl2; 0.02% Tween20), 0.1 mg/ml BSA, 15 nM tritium labelled cAMP and varying amounts of inhibitors. Reactions were initiated by addition of the cyclic nucleotide substrate, and reactions were allowed to proceed for 1 h at room temperature before being terminated through mixing with 20 μL (0.2 mg) yttrium silicate SPA beads (PerkinElmer). The beads were allowed to settle for 1 h in the dark before the plates were counted in a Wallac 1450 Microbeta counter. The measured signals were converted to activity relative to an uninhibited control (100%) and IC50 values were calculated using XIFit (model 205, IDBS).

The target in assay [2] is PDE1A (Homo sapiens, UniProt P54750). Briefly: PDE1 Inhibition Assay, PDE1A (SPA). On the procedure:
as §1

Assay [3] addresses PDE1B (Homo sapiens, UniProt Q01064). Briefly: PDE1 Inhibition Assay, PDE1B (SPA). On the procedure:
as §1

Chain of PDE1C (Q14123 whole entry): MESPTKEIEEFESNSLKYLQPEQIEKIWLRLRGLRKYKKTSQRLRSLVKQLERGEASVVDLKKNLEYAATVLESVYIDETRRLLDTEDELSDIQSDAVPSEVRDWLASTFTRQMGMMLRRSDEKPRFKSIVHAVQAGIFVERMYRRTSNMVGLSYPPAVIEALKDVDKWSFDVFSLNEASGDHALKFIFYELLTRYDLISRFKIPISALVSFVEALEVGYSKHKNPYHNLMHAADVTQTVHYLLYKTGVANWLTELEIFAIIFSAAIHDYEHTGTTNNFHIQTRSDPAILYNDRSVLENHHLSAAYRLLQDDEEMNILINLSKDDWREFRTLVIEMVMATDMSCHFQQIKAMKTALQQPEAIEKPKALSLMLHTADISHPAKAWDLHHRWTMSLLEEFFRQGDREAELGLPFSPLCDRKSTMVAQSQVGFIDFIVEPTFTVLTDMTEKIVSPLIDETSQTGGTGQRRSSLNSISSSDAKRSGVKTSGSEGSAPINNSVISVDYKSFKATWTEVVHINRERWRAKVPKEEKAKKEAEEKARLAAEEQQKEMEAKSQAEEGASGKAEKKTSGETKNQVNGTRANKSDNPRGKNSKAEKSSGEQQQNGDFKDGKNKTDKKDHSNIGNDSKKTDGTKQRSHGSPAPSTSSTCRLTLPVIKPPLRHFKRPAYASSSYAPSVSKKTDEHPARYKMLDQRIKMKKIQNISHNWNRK
Chain of PDE1A (P54750 whole entry): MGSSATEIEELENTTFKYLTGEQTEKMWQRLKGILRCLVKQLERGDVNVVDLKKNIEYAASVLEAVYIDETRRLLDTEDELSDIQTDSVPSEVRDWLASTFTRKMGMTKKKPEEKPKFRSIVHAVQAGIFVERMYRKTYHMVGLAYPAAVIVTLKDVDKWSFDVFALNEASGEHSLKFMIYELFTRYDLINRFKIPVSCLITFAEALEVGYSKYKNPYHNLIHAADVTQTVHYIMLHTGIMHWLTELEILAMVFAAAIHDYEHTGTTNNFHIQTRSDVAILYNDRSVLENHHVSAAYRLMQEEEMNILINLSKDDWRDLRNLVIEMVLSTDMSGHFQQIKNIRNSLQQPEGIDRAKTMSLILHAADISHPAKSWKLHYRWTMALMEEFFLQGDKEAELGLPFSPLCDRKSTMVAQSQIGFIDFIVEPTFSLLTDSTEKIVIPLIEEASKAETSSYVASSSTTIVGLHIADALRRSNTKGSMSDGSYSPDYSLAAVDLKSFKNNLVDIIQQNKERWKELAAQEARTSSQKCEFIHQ
Chain of PDE1B (Q01064 whole entry): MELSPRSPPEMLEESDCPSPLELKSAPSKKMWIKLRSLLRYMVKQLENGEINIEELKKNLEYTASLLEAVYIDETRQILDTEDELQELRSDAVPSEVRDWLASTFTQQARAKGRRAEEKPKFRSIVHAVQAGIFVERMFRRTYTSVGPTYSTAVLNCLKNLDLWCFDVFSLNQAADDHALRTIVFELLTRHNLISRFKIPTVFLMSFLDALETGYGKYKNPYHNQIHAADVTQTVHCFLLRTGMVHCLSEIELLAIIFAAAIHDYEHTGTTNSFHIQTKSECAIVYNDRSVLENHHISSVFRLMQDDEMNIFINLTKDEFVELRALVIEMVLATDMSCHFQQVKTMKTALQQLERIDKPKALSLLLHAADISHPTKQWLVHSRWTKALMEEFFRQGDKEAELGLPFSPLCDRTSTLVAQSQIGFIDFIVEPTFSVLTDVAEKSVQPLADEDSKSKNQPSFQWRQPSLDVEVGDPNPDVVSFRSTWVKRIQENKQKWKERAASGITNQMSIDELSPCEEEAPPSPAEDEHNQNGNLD

For the molecule `COc1ccc2c(NC3(C)CCOC3C)ncnc2c1OC` (mixture of isomers) [Compound 5, N-(2,3-dimethyltetrahydrofuran-3-yl)-7,8-dimethoxyquinazolin-4-amine], the IC50 in assay [1] worked out at 0.13 µM; in assay [2], 0.13 µM; in assay [3], 0.033 µM.

For the molecule `COc1ccc2c(NC3CCOC3)ncnc2c1OC` (racemic) [Compound 1, 7,8-Dimethoxy-N-(tetrahydrofuran-3-yl)quinazolin-4-amine], the IC50 in assay [1] came to 0.59 µM; in assay [2], 1.2 µM; in assay [3], 0.23 µM.

As to `COc1ccc2c(N[C@@H]3COC[C@H]3OC)ncnc2c1OC` (relative stereo) [Compound 17, Trans-7,8-dimethoxy-N-(4-methoxytetrahydrofuran-3-yl)quinazolin-4-amine], the IC50 in assay [1] worked out at 1.3 µM; in assay [2], 2.2 µM; in assay [3], 0.52 µM.

On to `COc1ccc2c(N[C@@H]3COC[C@H]3O)ncnc2c1OC` (relative stereo) [Compound 18, trans-4-((7,8-dimethoxyquinazolin-4-yl)amino)tetrahydrofuran-3-ol], for which the half-inhibitory concentration (IC50) stood at 2.6 µM in assay [1], 2.3 µM in assay [2] and 1.3 µM in assay [3].

As to `COc1ccc2c(N[C@@H]3COC[C@@H]3O)ncnc2c1OC` (relative stereo) [Compound 19, cis-4-((7,8-dimethoxyquinazolin-4-yl)amino)tetrahydrofuran-3-ol], the concentration for half-maximal inhibition (IC50) was determined as 4.6 µM in assay [2] and 0.84 µM in assay [3].

As for `COc1ccc2c(NC3CCOC3)ncnc2c1OC` (single isomer, unassigned) [1 Stereoisomer 1], the figures for the IC50 in assay [1], in assay [2] and in assay [3] were 0.28 µM, 0.28 µM and 0.054 µM, respectively.

`COc1ccc2c(NC3CCOC3)ncnc2c1OC` (single isomer, unassigned) [1 Stereoisomer 2]: the figures for the IC50 in assay [1], in assay [2] and in assay [3] were 1.2 µM, 1.9 µM and 0.6 µM, respectively.

As to `COc1ccc2c(NC3CCOC3C)ncnc2c1OC` (single isomer, unassigned) [3 Stereoisomer 1], the IC50 in assay [1] was 3 µM; in assay [2], 2.5 µM; in assay [3], 1.2 µM.

Regarding `COc1ccc2c(NC3CCOC3C)ncnc2c1OC` (single isomer, unassigned) [3 Stereoisomer 2], the concentration for half-maximal inhibition (IC50) worked out at 0.31 µM in assay [1], 0.49 µM in assay [2] and 0.094 µM in assay [3].

In the case of `COc1ccc2c(NC3CCOC3C)ncnc2c1OC` (single isomer, unassigned) [3 Stereoisomer 3], the values for the IC50 in assay [1], in assay [2] and in assay [3] were 0.39 µM, 0.89 µM and 0.1 µM, respectively.

As for `COc1ccc2c(NC3CCOC3C)ncnc2c1OC` (single isomer, unassigned) [3 Stereoisomer 4], the figures for the IC50 in assay [1], in assay [2] and in assay [3] were 0.27 µM, 0.58 µM and 0.12 µM, respectively.

As for `COc1ccc2c(N(C)[C@@H]3CCOC3)ncnc2c1OC` (single isomer, unassigned) [4 Stereoisomer 1], the IC50 in assay [1] was 0.14 µM; in assay [2], 0.37 µM; in assay [3] it was 0.08 µM.

As to `COc1ccc2c(N(C)[C@H]3CCOC3)ncnc2c1OC` (single isomer, unassigned) [4 Stereoisomer 2], the values for the IC50 in assay [1], in assay [2] and in assay [3] were 0.14 µM, 1.4 µM and 0.08 µM, respectively.

For the molecule `COc1ccc2c(NC3(C)CCOC3C)ncnc2c1OC` (single isomer, unassigned) [5 Stereoisomer 1], the IC50 in assay [1] was 1.1 µM; in assay [2] it was 0.59 µM; in assay [3] it was 0.3 µM.

On to `COc1ccc2c(NC3(C)CCOC3C)ncnc2c1OC` (single isomer, unassigned) [5 Stereoisomer 2], for which the 50% inhibitory concentration (IC50) in assay [1] was found to be 0.4 µM; in assay [2], 0.24 µM; in assay [3] it was 0.087 µM.

On to `COc1ccc2c(NC3(C)CCOC3C)ncnc2c1OC` (single isomer, unassigned) [5 Stereoisomer 3], for which the half-inhibitory concentration (IC50) in assay [1] worked out at 0.067 µM; in assay [2] it was 0.033 µM; in assay [3], 0.006 µM.

In the case of `COc1ccc2c(NC3(C)CCOC3C)ncnc2c1OC` (single isomer, unassigned) [5 Stereoisomer 4], the results for the IC50 in assay [1], in assay [2] and in assay [3] were 0.14 µM, 0.077 µM and 0.015 µM, respectively.

As for `COc1ccc2c(NC3(C)CCOC3)ncnc2c1OC` (single isomer, unassigned) [6 Stereoisomer 1], the concentration for half-maximal inhibition (IC50) came out at 0.4 µM in assay [1], 0.29 µM in assay [2] and 0.11 µM in assay [3].

As to `COc1ccc2c(NC3(C)CCOC3)ncnc2c1OC` (single isomer, unassigned) [6 Stereoisomer 2], the 50% inhibitory concentration (IC50) in assay [1] is 0.11 µM; in assay [2], 0.14 µM; in assay [3] it was 0.037 µM.

Regarding `COc1ccc2c(N(C)C3(C)CCOC3C)ncnc2c1OC` (single isomer, unassigned) [20 Stereoisomer 1], the IC50 in assay [1] amounted to 0.033 µM; in assay [2] it was 0.019 µM; in assay [3], 0.005 µM.

Turning to `COc1ccc2c(N(C)C3(C)CCOC3C)ncnc2c1OC` (single isomer, unassigned) [20 Stereoisomer 2], the half-maximal inhibitory concentration (IC50) in assay [1] turned out to be 0.027 µM; in assay [2], 0.026 µM; in assay [3], 0.004 µM.

In the case of `COc1ccc2c(N(C)C3(C)CCOC3C)ncnc2c1OC` (single isomer, unassigned) [20 Stereoisomer 3], the IC50 is 0.89 µM in assay [1], 0.44 µM in assay [2] and 0.19 µM in assay [3].

Turning to `COc1ccc2c(N(C)C3(C)CCOC3C)ncnc2c1OC` (single isomer, unassigned) [20 Stereoisomer 4], the values for the half-maximal inhibitory concentration (IC50) in assay [1], in assay [2] and in assay [3] were 0.17 µM, 0.12 µM and 0.039 µM, respectively.

Turning to `COc1ccc2c(NC3CCOC3(C)C)ncnc2c1OC` (single isomer, unassigned) [21 Stereoisomer 1], the concentration for half-maximal inhibition (IC50) in assay [1] worked out at 2.8 µM; in assay [2] it was 1.5 µM; in assay [3] it was 0.78 µM.

On to `COc1ccc2c(NC3CCOC3(C)C)ncnc2c1OC` (single isomer, unassigned) [21 Stereoisomer 2], for which the IC50 in assay [1] was found to be 1.6 µM; in assay [2] it was 1.3 µM; in assay [3], 0.26 µM.

In the case of `COc1ccc2c(N(C)C3CCOC3C)ncnc2c1OC` (single isomer, unassigned) [22 Stereoisomer 1], the half-maximal inhibitory concentration (IC50) worked out at 0.079 µM in assay [1], 0.11 µM in assay [2] and 0.028 µM in assay [3].

As to `COc1ccc2c(N(C)C3CCOC3C)ncnc2c1OC` (single isomer, unassigned) [22 Stereoisomer 2], the results for the concentration for half-maximal inhibition (IC50) in assay [1], in assay [2] and in assay [3] were 0.055 µM, 0.21 µM and 0.035 µM, respectively.

As for `COc1ccc2c(N(C)C3CCOC3C)ncnc2c1OC` (single isomer, unassigned) [22 Stereoisomer 3], the 50% inhibitory concentration (IC50) was found to be 1.5 µM in assay [1], 1.1 µM in assay [2] and 0.43 µM in assay [3].

`COc1ccc2c(N(C)C3CCOC3C)ncnc2c1OC` (single isomer, unassigned) [22 Stereoisomer 4]: the IC50 stood at 0.78 µM in assay [1], 1.5 µM in assay [2] and 1.1 µM in assay [3].

Regarding `COc1ccc2c(N(C)C3(C)CCOC3)ncnc2c1OC` (single isomer, unassigned) [23 Stereoisomer 1], the IC50 in assay [1] came to 0.5 µM; in assay [2] it was 0.24 µM; in assay [3] it was 0.07 µM.

In the case of `COc1ccc2c(N(C)C3(C)CCOC3)ncnc2c1OC` (single isomer, unassigned) [23 Stereoisomer 2], the figures for the half-maximal inhibitory concentration (IC50) in assay [1], in assay [2] and in assay [3] were 0.17 µM, 0.16 µM and 0.055 µM, respectively.

With `COc1ccc2c(N(C)C3CCOC3)ncnc2c1OC` (stereo not shown) [Compound 4, 7,8-Dimethoxy-N-methyl-N-(tetrahydrofuran-3-yl)quinazolin-4-amine], the IC50 was 0.14 µM in assay [1], 0.36 µM in assay [2] and 0.084 µM in assay [3].

For `COc1ccc2c(NC3(C)CCOC3)ncnc2c1OC` (stereo not shown) [Compound 6, 7,8-dimethoxy-N-(3-methyltetrahydrofuran-3-yl)quinazolin-4-amine], the figures for the IC50 in assay [1], in assay [2] and in assay [3] were 0.16 µM, 0.15 µM and 0.062 µM, respectively.

In the case of `CCN(c1ncnc2c(OC)c(OC)ccc12)[C@H]1CCOC1` [Compound 8, (S)-N-ethyl-7,8-dimethoxy-N-(tetrahydrofuran-3-yl)quinazolin-4-amine], the concentration for half-maximal inhibition (IC50) in assay [1] is 0.51 µM; in assay [2] it was 0.48 µM; in assay [3], 0.25 µM.

Turning to `CCCN(c1ncnc2c(OC)c(OC)ccc12)[C@H]1CCOC1` [Compound 9, (S)-7,8-dimethoxy-N-propyl-N-(tetrahydrofuran-3-yl)quinazolin-4-amine], the half-maximal inhibitory concentration (IC50) in assay [1] amounted to 0.54 µM; in assay [2], 0.28 µM; in assay [3] it was 0.18 µM.

With `COc1ccc2c(N(Cc3ccccc3)[C@H]3CCOC3)ncnc2c1OC` [Compound 10, (S)-N-benzyl-7,8-dimethoxy-N-(tetrahydrofuran-3-yl)quinazolin-4-amine], the IC50 in assay [1] amounted to 1.4 µM; in assay [2] it was 0.82 µM; in assay [3] it was 0.36 µM.

In the case of `CCC1(Nc2ncnc3c(OC)c(OC)ccc23)CCOC1` (stereo not shown) [Compound 24, N-(3-Ethyltetrahydrofuran-3-yl)-7,8-dimethoxyquinazolin-4-amine], the IC50 was determined as 0.22 µM in assay [1] and 0.063 µM in assay [3].
